Here are results for one molecule from paper PMC6934184, “Selective DNA-PKcs inhibition extends the therapeutic index of localized radiotherapy and chemotherapy” (The Journal of Clinical Investigation, 2019).

This assay addresses T1, BLK (Homo sapiens, UniProt P51451).
T1 construct: purchased Thermo Fisher Scientific (Life Technologies) SelectScreen
As to the kind of experiment: SelectScreen Z'LYTE. The format is biochemical. In outline: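 SelectScreen broad panel; activity (Z'LYTE, Adapta) plus binding formats. ATP: Km app for CSF1R Z'LYTE; 10 for CAMK1 Adapta. Readout = % per kinase.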

T1 sequence (P51451 whole entry): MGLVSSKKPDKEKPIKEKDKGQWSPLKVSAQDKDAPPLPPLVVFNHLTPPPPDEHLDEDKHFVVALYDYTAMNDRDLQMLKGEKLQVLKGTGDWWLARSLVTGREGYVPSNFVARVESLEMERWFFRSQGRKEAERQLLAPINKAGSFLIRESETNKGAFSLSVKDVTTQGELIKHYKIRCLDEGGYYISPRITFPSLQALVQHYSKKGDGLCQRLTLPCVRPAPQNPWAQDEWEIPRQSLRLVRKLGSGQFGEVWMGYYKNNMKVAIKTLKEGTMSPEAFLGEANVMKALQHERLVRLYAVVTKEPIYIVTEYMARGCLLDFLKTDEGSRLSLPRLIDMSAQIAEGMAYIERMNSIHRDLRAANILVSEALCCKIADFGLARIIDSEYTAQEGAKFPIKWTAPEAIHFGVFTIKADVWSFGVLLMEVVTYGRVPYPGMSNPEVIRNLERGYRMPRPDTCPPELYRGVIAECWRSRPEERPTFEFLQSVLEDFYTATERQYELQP

In general, inhibition refers to the drop in the measured response relative to a control, in per cent. In the case of `CN(C(=O)CN1CCOCC1)c1ccc2sc3c(-c4cccc5c(=O)cc(N6CC7CCC(C6)O7)oc45)cccc3c2c1` [NU5455], the inhibition at 1 µM was -8.9%.
